These results are taken from US4444691A, “11-Cyano-prostaglandins of the F-series” (American Cyanamid Company, priority 1982, dated 1984).

The test system of data set [1] is gastrointestinal effects. As to conditions: Physician's Desk Reference 1972, p. 964; cited from earlier work.
Data set [2] relates to ulcerogenic effects induced by indomethacin (stomach ulcers). The format is in vivo, rat. As to conditions: indomethacin 20 mg/kg s.c., 5 h.
In data set [3] the test system is ligated intestine. More on the design: species or system female Sprague-Dawley rats. As to conditions: rat, in vivo, 10 mg/kg. Here is the method: It is therefore unexpected and novel that in general, the compounds of this invention are not diarrheagenic at dose levels at which they are effective gastric acid secretion inhibitors. One measure of diarrheagenic potential is the ileal ligated rat assay, a description of which follows directly.
Female Sprague-Dawley rats (Charles River Laboratories) weighing less than 100 grams are fasted in individual cages for at least 18 hours. They are then anesthetized with ether and a midline incision made. The duodenum is exposed and the test drug or control injected intraduodenally. The ilcocecal junction is then exposed and the terminal ileum is ligated using 3-0 silk thread just proximal to the junction. The incision is then closed using wound clips. Rats are placed back in individual cages without food or water for four hours. After this time the rats were sacrificed, the stomach and small intestine carefully removed, and cleaned of adherent mesentery. The removed portion of gut is then weighed to the nearest 0.1 gram. Compounds inducing diarrhea such as prostaglandins, cholera toxin, etc. produce an increase in weight of the ligated intestine. This increase from control is noted in Table IV, as change in weight in grams after standardizing weights of gut to grams/100 gram rat. An increase in intestinal weight of about 1.0 g. is considered indicative of diarrheagenic potential.
When measured by this assay at effective gastric acid secretion inhibiting doses, as determined by the acute rat fistula assay representative novel compounds of Table IV are non-diarrheagenic.

Data set [4] relates to basal gastric acid secretion. Briefly: Inhibition of total acid output (basal gastric acid secretion) in the acute gastric fistula rat. The class given is in vivo, female Sprague-Dawley rats. As to conditions: Rattus norvegicus, intraduodenal.
Setting [5] is: 1 h, 60 min, read-out: % Inhibition of total acid output, after 60 minutes (A).
Setting [6] is: 2 h, 120 min, read-out: % Inhibition of total acid output, after 120 minutes (B).

Structures are written as SMILES. Read-outs that look alike come from different tables or passages of the source.

With `COc1ccc2c(c1)c(CC(=O)O)c(C)n2C(=O)c1ccc(Cl)cc1` [indomethacin, reference compound], in data set [1], the Gastrointestinal reactions entry is “occurrence and, at times, severity of gastrointestinal reactions”. For the same compound, in data set [2], the “Ulcer score, control animals treated with indomethacin but not test compound” value is listed as 2.5-3.5.
As to `CCCCC[C@@H](/C=C/[C@H]1[C@H](CO)C[C@@H](O)[C@@H]1C/C=C\CCCC(=O)OC)OC(C)=O` [l-11α-hydroxymethyl-15-O--acetyl-11-deoxyprostaglandin-F2 β methyl ester], the “Increase in weight of intestine” value in data set [3] is on record as “+0.15 g”. Moreover, the inhibition in vivo at 5 mg/kg worked out at 47% in data set [4] (setting [5]) and 33% in data set [4] (setting [6]).
`C=C[C@@H]1C[C@H](O)[C@H](C/C=C\CCCC(=O)O)[C@H]1/C=C/[C@@H](O)CCCCC` [l-11α-vinyl-11-deoxyprostaglandin-F2 α, 11-deoxy-11α-vinylprostaglandin F2α]: the “Increase in weight of intestine” value in data set [3] was -0.36 g. Also, the figures for the inhibition in vivo at 2.5 mg/kg in data set [4] (setting [5]) and in data set [4] (setting [6]) were 15% and 37%, respectively. The inhibition in vivo at 5 mg/kg in data set [4] (setting [5]) worked out at 53%; in data set [4] (setting [6]), 67%.
